Experimental data published in patent publication US11534441B2, “MAP4K1 inhibitors” (Blueprint Medicines Corporation, priority 2020, dated 2022).

Experiments:
MAP4K1 (HPK1) = MAP4K1 (HPK1) (Homo sapiens (Human), UniProt Q92918); test: MAP4K1 (HPK1) biochemical enzymatic activity, electrophoretic mobility shift (EZReader 2), ATP at APPKM (26 μM)
Summary of the method: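 Enzyme at 0.1-15 nM was incubated with 1.5 μM fluorescent peptide and ATP at the apparent Km (26 μM) in HEPES pH 7.5, MgCl2, DTT and Brij 35. The reaction ran at 25° C for 60-180 min with a 10-point, 4-fold compound series (1% DMSO) and was stopped with EDTA. Substrate and product peptides were resolved by microfluidic mobility shift, and their peak ratio gave activity.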

expanded CD3+ T cells = test: T cell enhancement of cytokines: IL2 measurement (HTRF) in expanded CD3+ T cells stimulated with anti-CD3/anti-CD28; format: cell-based, human; conditions: IL-2 measurement
Summary of the method: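 Healthy-donor T cells (95-98% CD3+) expanded 10-14 days with IL2 and CD3/CD28 beads, then cryopreserved. 100K cells/well in X-VIVO 10 serum-free medium were stimulated with plate-bound anti-CD3 plus soluble anti-CD28 with compound at various concentrations for 24 h. Secreted IL2 measured by HTRF after 24 h antibody incubation.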

[1] = Homo sapiens, T-cell, class designation
[2] = Homo sapiens, T-cell, numeric value

Sequence of MAP4K1 (HPK1) (Q92918 whole entry): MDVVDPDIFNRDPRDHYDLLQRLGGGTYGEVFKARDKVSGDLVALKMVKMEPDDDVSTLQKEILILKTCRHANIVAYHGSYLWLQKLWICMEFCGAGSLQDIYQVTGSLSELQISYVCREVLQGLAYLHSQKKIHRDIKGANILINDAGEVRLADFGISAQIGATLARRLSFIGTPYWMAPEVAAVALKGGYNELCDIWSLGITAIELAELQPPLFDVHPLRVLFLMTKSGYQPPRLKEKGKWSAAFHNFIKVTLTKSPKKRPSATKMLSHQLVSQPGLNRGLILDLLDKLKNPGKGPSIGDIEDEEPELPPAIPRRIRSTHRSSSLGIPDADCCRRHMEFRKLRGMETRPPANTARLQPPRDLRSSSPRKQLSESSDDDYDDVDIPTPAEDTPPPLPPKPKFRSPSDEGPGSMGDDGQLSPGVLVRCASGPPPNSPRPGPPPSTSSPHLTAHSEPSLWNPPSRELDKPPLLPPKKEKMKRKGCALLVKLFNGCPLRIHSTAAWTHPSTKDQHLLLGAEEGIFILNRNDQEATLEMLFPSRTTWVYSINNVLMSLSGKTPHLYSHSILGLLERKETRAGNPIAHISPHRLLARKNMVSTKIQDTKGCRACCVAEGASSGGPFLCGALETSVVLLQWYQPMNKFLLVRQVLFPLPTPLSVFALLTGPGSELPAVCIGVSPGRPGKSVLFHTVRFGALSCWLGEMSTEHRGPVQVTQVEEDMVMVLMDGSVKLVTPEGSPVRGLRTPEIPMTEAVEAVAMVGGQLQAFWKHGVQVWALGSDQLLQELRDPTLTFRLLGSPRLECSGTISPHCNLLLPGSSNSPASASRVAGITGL

Structure (SMILES) | IC50 (MAP4K1 (HPK1); class designation) [nM] | IC50 (MAP4K1 (HPK1); numeric value) [nM] | EC50 (expanded CD3+ T cells; [1]) [nM] | EC50 (expanded CD3+ T cells; [2]) [nM] | EC50 (expanded CD3+ T cells; class designation) [nM] | EC50 (expanded CD3+ T cells; numeric value) [nM]
CCOc1ncc(C(C)(C)N)c2cc(Nc3ccc4c(n3)[C@@H](C)[C@H](C)OC4=O)ncc12 [Compound 57] | < 0.3 | 0.16 | < 35 | 5.1 | – | –
CCOc1ncc(C(C)(C)N)c2cc(Nc3ccc4c(n3)[C@H](C)[C@@H](C)OC4=O)ncc12 [Compound 58] | 0.31 to 1 | 0.39 | < 35 | 20.4 | – | –
CC1(C)Cc2nc(Nc3cc4c(C(C)(C)N)cnc(OC5CC5)c4cn3)ccc2C(=O)O1 [Compound 64] | 0.31 to 1 | 0.44 | 35.1 to 45 | 42.9 | – | –
C[C@@H]1OC(=O)c2ccc(Nc3cc4c(C(C)(C)N)cnc(OC5CC5)c4cn3)nc2[C@H]1C [Compound 66, (7S, 8R)-2-((5-(2-aminopropan-2-yl)-8-cyclopropoxy-2,7-naphthyridin-3-yl)amino)-7,8-dimethyl-7,8-dihydro-5H-pyrano[4,3-b]pyridin-5-one] | < 0.3 | 0.18 | < 35 | 8.1 | – | –
CCOc1ncc(C(C)(C)N)c2cc(Nc3ccc4c(n3)[C@@H](C)C(C)(C)OC4=O)ncc12 [Compound 67] | < 0.3 | 0.12 | < 35 | 6.2 | – | –
CCOc1ncc(C(C)(C)N)c2cc(Nc3ccc4c(n3)[C@H](C)C(C)(C)OC4=O)ncc12 [Compound 68] | < 0.3 | 0.27 | < 35 | 29.5 | – | –
CC(C)Oc1ncc(C(C)(C)N)c2cc(Nc3ccc4c(n3)CC(C)(C)OC4=O)ncc12 [Compound 69] | 0.31 to 1 | 0.88 | 45.1 to 55 | 52.8 | – | –
C[C@H]1c2nc(Nc3cc4c(C(C)(C)N)cnc(OC5CC5)c4cn3)ccc2C(=O)OC1(C)C [Compound 70] | 0.31 to 1 | 0.35 | < 35 | 20.6 | – | –
C[C@@H]1c2nc(Nc3cc4c(C(C)(C)N)cnc(OC5CC5)c4cn3)ccc2C(=O)OC1(C)C [Compound 71] | < 0.3 | 0.11 | < 35 | 7.9 | – | –
CC1(C)Cc2nc(Nc3cc4c(C(C)(C)N)cnc(OC5CCC5)c4cn3)ccc2C(=O)O1 [Compound 72, 2-((5-(2-Aminopropan-2-yl)-8-cyclobutoxy-2,7-naphthyridin-3-yl)amino)-7,7-dimethyl-7,8-dihydro-5H-pyrano[4,3-b]pyridin-5-one] | 0.31 to 1 | – | 35.1 to 45 | 35.5 | – | –
CC1(C)Cc2nc(Nc3cc4c(C(C)(C)N)cnc(OCC(F)F)c4cn3)ccc2C(=O)O1 [Compound 73] | < 0.3 | 0.22 | < 35 | 23.7 | – | –
CC1(C)Cc2nc(Nc3cc4c([C@](C)(N)C5CC5)cnc(OC5CC5)c4cn3)ccc2C(=O)O1 [Compound 74, R-2-((5-(1-amino-1-cyclopropylethyl)-8-cyclopropoxy-2,7-naphthyridin-3-yl)amino)-7,7-dimethyl-7,8-dihydro-5H-pyrano[4,3-b]pyridin-5-one] | < 0.3 | 0.12 | < 35 | 22.2 | – | –
CC1(C)Cc2nc(Nc3cc4c(C(C)(C)N)cnc(OCC(F)(F)F)c4cn3)ccc2C(=O)O1 [Compound 77] | 0.31 to 1 | 0.65 | < 35 | 32.5 | – | –
C[C@@H]1OC(=O)c2ccc(Nc3cc4c(C(C)(C)N)cnc(OCC(F)(F)F)c4cn3)nc2[C@H]1C [Compound 78] | < 0.3 | 0.19 | < 35 | 11.6 | – | –
CC[C@@](C)(N)c1cnc(OC2CC2)c2cnc(Nc3ccc4c(n3)[C@@H](C)[C@H](C)OC4=O)cc12 [Compound 80] | < 0.3 | 0.08 | – | – | < 35 | 4.1
C[C@@H]1OC(=O)c2ccc(Nc3cc4c(C(C)(C)N)cnc(OC5(C)CC5)c4cn3)nc2[C@H]1C [Compound 82] | < 0.3 | 0.16 | < 35 | 20.8 | – | –
C[C@@H]1c2nc(Nc3cc4c(C(C)(C)N)cnc(OC5(C)CC5)c4cn3)ccc2C(=O)OC1(C)C [Compound 83] | < 0.3 | 0.19 | < 35 | 28.7 | – | –

Structure (SMILES) | IC50 (MAP4K1 (HPK1); class designation) [nM] | IC50 (MAP4K1 (HPK1); numeric value) [nM] | EC50 (expanded CD3+ T cells; [1]) [nM] | EC50 (expanded CD3+ T cells; [2]) [nM] | EC50 (expanded CD3+ T cells; class designation) [nM] | EC50 (expanded CD3+ T cells; numeric value) [nM]
CC[C@](C)(N)c1cnc(OC2(C)CC2)c2cnc(Nc3ccc4c(n3)[C@@H](C)[C@H](C)OC4=O)cc12 [Compound 85] | < 0.3 | 0.22 | – | – | 35.1 to 45 | 36.1
CC[C@](C)(N)c1cnc(OC2(C)CC2)c2cnc(Nc3ccc4c(n3)[C@@H](C)C(C)(C)OC4=O)cc12 [Compound 87] | 0.31 to 1 | 0.44 | – | – | < 35 | 31.6
C[C@@H]1OC(=O)c2ccc(Nc3cc4c([C@@](C)(N)C5CC5)cnc(OC5(C)CC5)c4cn3)nc2[C@H]1C [Compound 88] | < 0.3 | 0.16 | – | – | < 35 | 11.5
C[C@@H]1c2nc(Nc3cc4c([C@](C)(N)C5CC5)cnc(OC5(C)CC5)c4cn3)ccc2C(=O)OC1(C)C [Compound 91] | < 0.3 | 0.1 | – | – | < 35 | 15.1
CC[C@](C)(N)c1cnc(OC2(C)CC2)c2cnc(Nc3ccc4c(n3)[C@@H](C)[C@@H](C)OC4=O)cc12 [Compound 92] | < 0.3 | 0.25 | – | – | < 35 | 15.4
C[C@@H]1c2nc(Nc3cc4c([C@](C)(N)C5CC5)cnc(OC5(C)CC5)c4cn3)ccc2C(=O)O[C@@H]1C [Compound 94] | < 0.3 | 0.14 | – | – | < 35 | 23.5
CC[C@@](C)(N)c1cnc(OC2CC2)c2cnc(Nc3ccc4c(n3)[C@@H](C)[C@@H](C)OC4=O)cc12 [Compound 96] | < 0.3 | – | < 35 | 9.4 | – | –
COc1ncc([C@](C)(N)C2CC2)c2cc(Nc3ccc4c(n3)[C@@H](C)C(C)(C)OC4=O)ncc12 [Compound 101] | < 0.3 | 0.11 | – | – | < 35 | 20.8
COc1ncc([C@@](C)(N)C2CC2)c2cc(Nc3ccc4c(n3)[C@@H](C)C(C)(C)OC4=O)ncc12 [Compound 102] | 1.1 to 10 | 1.87 | – | – | < 35 | 28.7
COc1ccc(C(C)(C)N)c2cc(Nc3ccc4c(n3)CC(C)(C)OC4=O)ncc12 [Compound 103] | < 0.3 | 0.11 | < 35 | 3.1 | – | –
CC(C)(N)c1cnc(OC2CC2)c2cnc(Nc3ccc4c(n3)C(C)(C)OC4=O)cc12 [Compound 105] | 1.1 to 10 | 2.09 | 45.1 to 55 | 50.6 | – | –
C[C@@H]1OC(=O)c2ccc(Nc3cc4c(C(C)(C)N)cnc(NC5CC5)c4cn3)nc2[C@H]1C [Compound 109] | < 0.3 | 0.21 | < 35 | 9.8 | – | –
CC[C@@](C)(N)c1cnc(OC2CC2)c2cnc(Nc3ccc4c(n3)C(C)(C)OC4=O)cc12 [Compound 110] | 0.31 to 1 | 0.55 | – | – | < 35 | 33.9
CC[C@](C)(N)c1cnc(OC2CC2)c2cnc(Nc3ccc4c(n3)C(C)(C)OC4=O)cc12 [Compound 111] | > 10 | 16.8 | – | – | > 55 | 2660
CC(C)(N)c1cnc(OC2CC2)c2cnc(Nc3ccc4c(n3)C(C)(C)COC4=O)cc12 [Compound 112] | < 0.3 | 0.23 | < 35 | 19.6 | – | –
CC[C@]1(C)OC(=O)c2ccc(Nc3cc4c(C(C)(C)N)cnc(OC5CC5)c4cn3)nc21 [Compound 113] | 0.31 to 1 | 0.58 | – | – | < 35 | 32.7
